Assay results: ChEMBL document CHEMBL1201862, “PubChem BioAssay data set” (2004)
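Cultured in 96-well plates, cells were exposed to test compound for 48 hours across five concentrations. GI50: concentration for 50% inhibition of growth.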 Active and inactive are the calls of the source. Rule as the data show it: active = GI50 up to about 1.1 µM and inactive = higher.

Experiments:
Assay in all cases: NCI tumour cell line growth inhibition, 48 h
SN12C = tested on: SN12C
SR = tested on: SR
CAKI-1 = tested on: CAKI-1
LOX IMVI = tested on: LOX IMVI
KM12 = tested on: KM12
HOP-62 = tested on: HOP-62
OVCAR-4 = tested on: OVCAR-4
MDA-N = tested on: MDA-N
M14 = tested on: M14
U-251 = tested on: U-251
K562 = tested on: K562
MDA-MB-231 = tested on: MDA-MB-231
HL-60 = tested on: HL-60
Malme-3M = tested on: Malme-3M
NCI-H23 = tested on: NCI-H23
HCT-15 = tested on: HCT-15
A498 = tested on: A498
SK-MEL-28 = tested on: SK-MEL-28
SW-620 = tested on: SW-620
UO-31 = tested on: UO-31

Compound	GI50 (SN12C)	GI50 (SR)	GI50 (CAKI-1)	GI50 (LOX IMVI)	GI50 (KM12)	GI50 (HOP-62)	GI50 (OVCAR-4)	GI50 (MDA-N)	GI50 (M14)	GI50 (U-251)	GI50 (K562)	GI50 (MDA-MB-231)	GI50 (HL-60)	GI50 (Malme-3M)	GI50 (NCI-H23)	GI50 (HCT-15) [µM]	GI50 (A498)	GI50 (SK-MEL-28)	GI50 (SW-620)	GI50 (UO-31)
CCC1c2[nH]c3ccccc3c2C[C@H]2C(=O)NC(CCC(=O)OC(C)(C)C)C(=O)N12 (stereo not given in full)	39.4 µM (inactive)	41.7 µM (inactive)	> 100 µM (inactive)	51.4 µM (inactive)	35.1 µM (inactive)	78.5 µM (inactive)	41.4 µM (inactive)	51.5 µM (inactive)	42.5 µM (inactive)	56.6 µM (inactive)	53.6 µM (inactive)	66.4 µM (inactive)	34 µM (inactive)	12.6 µM (inactive)	68.7 µM (inactive)	52	89.7 µM (inactive)	73.5 µM (inactive)	67.3 µM (inactive)	46.9 µM (inactive)
CCOC(=O)Nc1ccc(C)c(NC(=O)OCC)c1	> 100 µM (inactive)	> 100 µM (inactive)	> 100 µM (inactive)	> 100 µM (inactive)	> 100 µM (inactive)	> 100 µM (inactive)		> 100 µM (inactive)	> 100 µM (inactive)	> 100 µM (inactive)	> 100 µM (inactive)	> 100 µM (inactive)	> 100 µM (inactive)	> 100 µM (inactive)	> 100 µM (inactive)	> 100	> 100 µM (inactive)	> 100 µM (inactive)	> 100 µM (inactive)	> 100 µM (inactive)
O=C1C(Br)=C(C2=CC(=P(c3ccccc3)(c3ccccc3)c3ccccc3)C=C2)C(=O)C(Br)=C1C1=CC(=P(c2ccccc2)(c2ccccc2)c2ccccc2)C=C1	> 100 µM (inactive)	> 100 µM (inactive)	> 100 µM (inactive)	> 100 µM (inactive)	> 100 µM (inactive)	> 100 µM (inactive)	76 µM (inactive)	> 100 µM (inactive)	12.6 µM (inactive)	16.9 µM (inactive)	> 100 µM (inactive)	42.1 µM (inactive)	> 100 µM (inactive)	18.3 µM (inactive)	> 100 µM (inactive)		> 100 µM (inactive)	41.8 µM (inactive)	19.4 µM (inactive)	> 100 µM (inactive)
COC1N(C2CC(O)C(CO)O2)C(=O)NC(=O)C1(F)Br (stereo not given)	9.25 µM (inactive)	6.18 µM (inactive)	> 19.9 µM (inactive)	6.1 µM (inactive)	21.6 µM (inactive)	1.45 µM (inactive)	> 50 µM (inactive)	18.7 µM (inactive)	15 µM (inactive)	23.9 µM (inactive)	36.8 µM (inactive)	> 57.1 µM (inactive)	> 50 µM (inactive)	15.1 µM (inactive)	6.73 µM (inactive)	13.4	9.29 µM (inactive)	9.86 µM (inactive)	32.8 µM (inactive)	10.3 µM (inactive)
CCCCOC(=O)NC(Nc1ccc(S(=O)(=O)Nc2ccc(OC)nn2)cc1)(C(F)(F)F)C(F)(F)F	> 100 µM (inactive)	> 100 µM (inactive)	> 100 µM (inactive)	> 100 µM (inactive)	> 100 µM (inactive)	> 100 µM (inactive)	> 100 µM (inactive)	> 100 µM (inactive)	> 100 µM (inactive)	> 100 µM (inactive)	> 100 µM (inactive)	> 100 µM (inactive)	> 100 µM (inactive)	> 100 µM (inactive)	> 100 µM (inactive)	> 100	> 100 µM (inactive)	> 100 µM (inactive)	> 100 µM (inactive)	> 100 µM (inactive)
O=P(Nc1ccccc1)(Oc1ccccc1)N1CCN(c2ccccc2)CC1 (stereo not given)	17.8 µM (inactive)	34.4 µM (inactive)	24.8 µM (inactive)	17.4 µM (inactive)	17.4 µM (inactive)	18 µM (inactive)	25.5 µM (inactive)	16.9 µM (inactive)	15.2 µM (inactive)	16.8 µM (inactive)	49.1 µM (inactive)	14.9 µM (inactive)	25 µM (inactive)	17.2 µM (inactive)	19.6 µM (inactive)	13.8	20.2 µM (inactive)	19.7 µM (inactive)	25.4 µM (inactive)	14.9 µM (inactive)
Cc1cc(=O)nc(Sc2ccc([N+](=O)[O-])cc2[N+](=O)[O-])[nH]1	10.8 µM (inactive)	6.27 µM (inactive)	15.1 µM (inactive)	2.81 µM (inactive)	22.2 µM (inactive)	24.5 µM (inactive)	> 39.4 µM (inactive)	16.7 µM (inactive)	16.4 µM (inactive)	20.7 µM (inactive)	3.4 µM (inactive)	23.2 µM (inactive)	3.33 µM (inactive)	17.3 µM (inactive)	18.3 µM (inactive)	14.2	> 100 µM (inactive)	20 µM (inactive)	3.72 µM (inactive)	17 µM (inactive)
COc1ccccc1C1SCC(=O)N1c1ccc(-n2c(-c3ccccc3)nc3ccccc3c2=O)cc1 (stereo not given)	> 100 µM (inactive)	81.7 µM (inactive)	82 µM (inactive)	77.8 µM (inactive)	29.9 µM (inactive)	> 100 µM (inactive)	15.8 µM (inactive)	> 100 µM (inactive)		73.1 µM (inactive)	47.9 µM (inactive)	47.6 µM (inactive)	> 10 µM (inactive)	69.2 µM (inactive)	> 100 µM (inactive)	54.2	36 µM (inactive)	> 100 µM (inactive)	63.5 µM (inactive)	9.1 µM (inactive)
O=C(CCC(=O)c1ccsc1)c1ccsc1	> 100 µM (inactive)	> 100 µM (inactive)	> 100 µM (inactive)	> 100 µM (inactive)	> 100 µM (inactive)	> 100 µM (inactive)	> 100 µM (inactive)	> 100 µM (inactive)	> 100 µM (inactive)	> 100 µM (inactive)		> 100 µM (inactive)	> 100 µM (inactive)	> 100 µM (inactive)	> 100 µM (inactive)	> 100	> 100 µM (inactive)	> 100 µM (inactive)	> 100 µM (inactive)	> 100 µM (inactive)
O=c1[nH]c(=O)n(C2CC(O)C(CO)O2)cc1/N=N/NCCCc1ccccc1 (stereo not given)	> 100 µM (inactive)	> 100 µM (inactive)	> 100 µM (inactive)	> 100 µM (inactive)	> 100 µM (inactive)	> 100 µM (inactive)	> 100 µM (inactive)	> 100 µM (inactive)	> 100 µM (inactive)			> 100 µM (inactive)	> 100 µM (inactive)	> 100 µM (inactive)	> 100 µM (inactive)	> 100	> 100 µM (inactive)	> 100 µM (inactive)		< 0.01 µM (active)
COc1cc2c(NCCCCCO)ncnc2c(OC)c1OC	> 100 µM (inactive)	> 87.9 µM (inactive)	> 100 µM (inactive)	> 100 µM (inactive)	> 100 µM (inactive)	> 100 µM (inactive)	> 100 µM (inactive)	> 100 µM (inactive)	> 100 µM (inactive)	> 100 µM (inactive)	> 100 µM (inactive)	95.5 µM (inactive)	> 100 µM (inactive)	> 63 µM (inactive)	> 100 µM (inactive)	> 100	> 100 µM (inactive)	> 100 µM (inactive)	> 100 µM (inactive)	> 85.9 µM (inactive)
C=CCc1cc(-c2cc(CC=C)c(O)c(CN(CC)CC)c2)cc(CN(CC)CC)c1O	85.1 µM (inactive)	13.5 µM (inactive)	50.2 µM (inactive)	16 µM (inactive)	43.3 µM (inactive)	47.4 µM (inactive)	> 100 µM (inactive)	31.4 µM (inactive)	8.93 µM (inactive)	42.4 µM (inactive)	26.1 µM (inactive)	26 µM (inactive)	35.4 µM (inactive)	16.8 µM (inactive)	60.1 µM (inactive)	15.8	> 100 µM (inactive)	28.6 µM (inactive)	25.5 µM (inactive)	15.2 µM (inactive)
CC(c1ccccc1)n1c2ccccc2c2c(N)ncnc21 (stereo not given)		24.7 µM (inactive)	16.1 µM (inactive)	17.5 µM (inactive)		17.5 µM (inactive)	13.6 µM (inactive)	22.6 µM (inactive)	18.8 µM (inactive)	16.7 µM (inactive)	24.7 µM (inactive)	19.1 µM (inactive)	23.9 µM (inactive)	21.2 µM (inactive)	20.4 µM (inactive)	23.4	15.7 µM (inactive)	17.9 µM (inactive)	22.6 µM (inactive)	9.16 µM (inactive)
CN1CCCCC1CCN1c2ccccc2Sc2ccc([S+](C)[O-])cc21 (stereo not given) [MESORIDAZINE]	> 100 µM (inactive)	> 100 µM (inactive)	> 100 µM (inactive)	> 100 µM (inactive)	> 100 µM (inactive)	> 100 µM (inactive)	> 100 µM (inactive)	> 100 µM (inactive)	> 100 µM (inactive)	> 100 µM (inactive)	> 100 µM (inactive)	> 100 µM (inactive)	> 100 µM (inactive)	> 100 µM (inactive)	> 100 µM (inactive)	> 100	> 100 µM (inactive)	> 100 µM (inactive)	> 100 µM (inactive)	
